Source: patent US8415367B2, “Pyrimidinylpiperidinyloxypyridinone analogues as GPR119 modulators” (Bristol-Myers Squibb Company, priority 2010, dated 2013)
Like-named read-outs stand apart in the source and are kept apart here.

Legend:
[1] = molecular target: T1, human-mouse chimeric GPR119 (Homo sapiens, UniProt Q8TDV5, A235T/C313R/C323Y/E253K/F304I/F307L/G211A/G245S/H255C/K284R/L224V/L258Q/L288Q/L301F/P218V/P318T/Q252H/R262K/S214P/S219N/S228A/S309P/S322A/T217S/T239S/V227I/V300F); assay: Tet-inducible cAMP assay (cAMP accumulation, HTRF); assay type: cell-based
T1 construct: the first 198 amino acids of human GPR119; the C-terminal 137 amino acids of the mouse receptor; expressed in transfected cells
T1 sequence (Q8TDV5 with tags, fused parts or gaps G211A/S214P/T217S/P218V/S219N/L224V/V227I/S228A/A235T/T239S/G245S/Q252H/E253K/H255C/L258Q/R262K/K284R/L288Q/V300F/L301F/F304I/F307L/S309P/C313R/P318T/S322A/C323Y): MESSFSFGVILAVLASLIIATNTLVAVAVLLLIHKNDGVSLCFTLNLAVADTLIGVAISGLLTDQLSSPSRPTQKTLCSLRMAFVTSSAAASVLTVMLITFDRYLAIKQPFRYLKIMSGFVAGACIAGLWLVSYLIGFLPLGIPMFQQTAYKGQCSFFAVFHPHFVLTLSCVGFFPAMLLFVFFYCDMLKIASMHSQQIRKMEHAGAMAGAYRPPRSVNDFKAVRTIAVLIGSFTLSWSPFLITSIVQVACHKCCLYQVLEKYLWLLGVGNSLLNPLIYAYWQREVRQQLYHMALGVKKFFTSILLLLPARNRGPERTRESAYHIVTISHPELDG
Protocol: The in vitro modulation of recombinant human GPR119 was determined as follows.
A human-mouse chimeric GPR119 expression construct encoding 3 copies of the FLAG epitope tag, the first 198 amino acids of human GPR119 and the C-terminal 137 amino acids of the mouse receptor was cloned into a tetracycline inducible vector pcDNA5/FRT/TO (Invitrogen #V6520-20), which includes a hygromycin-resistance marker. Tightly controlled receptor expression was achieved by stable integration of this construct into the genome of a specific host cell line, Flp-In-T-Rex-HEK293, expressing the tetracycline repressor (Invitrogen). Once a stable hygromycin-resistant cell line was generated, the cells were maintained at 37° C. in a humidified 5% CO2 atmosphere in culture medium consisting of Dulbecco's modified Eagle's medium (DMEM; Invitrogen #11960) supplemented with 2 mM L-glutamine, 10% fetal bovine serum, 200 μg/ml hygromycin B, and 15 μg/ml blasticidin.
Forty-eight hours prior to the cAMP accumulation assay, cells stably expressing the chimeric human/mouse GPR119 construct were seeded at a density of 4×10^3 cells/well in 384 well poly-D-lysine coated solid white plates (BD #35-6661) and grown at 37° C. in a humidified 5% CO2 atmosphere in culture medium supplemented with 1 μg/ml tetracycline to induce expression of the receptor. On the day of the assay, medium was removed and cells were incubated for 50 min. at 37° C. in a humidified 5% CO2 atmosphere in 20 μl/well of assay buffer (phosphate-buffered saline with Ca^2+ and Mg^2+, 12 mM glucose, 0.1 mM isobutyl-methyl-xanthine, 0.1% fatty-acid free bovine serum albumin) with the desired concentration of compound added from a concentrated stock dissolved in dimethyl sulfoxide (DMSO) to give a final concentration of 1% DMSO in the assay. cAMP accumulation was measured using the CisBio homogeneous time resolved fluorescence (HTRF) assay kit (#62AM2PEC) following the manufacturer's protocol. Briefly, 10 μl each of the cAMP-HTRF fluorescence detection reagents were added to each well, and the samples were incubated for 40 min. at room temperature. Fluorescence was excited at 320 nm and measured at 665 and 620 nm using the Envision instrument (Perkin Elmer), the fluorescence ratio of 665/620 was calculated and converted to nanomolar concentrations of cAMP in each well by interpolation from a cAMP standard curve. The concentration-response curves and EC50 values were calculated with a four parameter logistic curve fit equation utilizing Excel/XLfit software (Microsoft and IDBS). The EC50 value was calculated as the concentration of agonist which increased the cAMP concentration to a value halfway between the baseline and the maximum.
Compounds of the present invention were tested in the Tet-inducible cAMP assay described immediately above and the results shown in Table 5 below were obtained.

[2] = system: male C57BL/6J mice; assay: Mouse oral glucose tolerance test; assay type: in vivo; details: for Minimally efficacious Dose / Glucose Lowering: oral; for Minimally efficacious Dose: given 60 min before glucose load (2 g/kg), oGTT in C57BL/6J mice; for Glucose Lowering: plasma glucose AUC change vs vehicle at the minimally efficacious dose
Protocol: Mouse Oral Glucose Tolerance Test
Twenty four (24) male C57BL/6J mice (8-10 weeks old, average weight 28 g) were randomized into 4 groups (1 mouse/cage) of 6 mice per group based on fed plasma glucose and body weight. Prior to initiating the study, mice were fasted overnight and the next morning they were weighed and placed in the experimental lab. After 30 min in the environment, the mice were bled via tail tip at −60 min and immediately given their first oral administration of vehicle (40% PEG400, 10% Cremophor EL, 50% water) or compound solutions (5 ml/kg). At time 0 the mice were bled and given 50% glucose (2 g/kg) to initiate the oral glucose tolerance test (oGTT). The mice were bled 30, 60 and 120 min after the glucose load. Blood samples were drawn into potassium EDTA, placed on ice during the study and subsequently centrifuged for 10 min at 3000 rpm at 4° C. Plasma samples were diluted 11-fold for glucose analysis in the COBAS MIRA® System (Roche Diagnostics). Area under the curve was calculated from the plasma glucose time course data using the trapezoid rule with fasting plasma glucose as the baseline (GraphPad Prism Software). The statistical significance of the changes in the glucose AUCs resulting from the different treatments was determined by one-way ANOVA followed by Dunnett's test using the vehicle group as the control (JMP software, release 5.1.2).
Find below in Table 6 data for compared compounds (See WO 2009/012275 A1).

[3] = Metabolic stability in liver microsomes test; details: human, pH 7.4
Protocol: (§1) Metabolic Stability in Liver Microsomes Test
(§2) Human liver microsomes were purchased from BD-Biosciences (Woburn, Mass.). The test compound was received as a 3.5 mM stock solution in 100 percent dimethyl sulfoxide (“DMSO”, Sigma Aldritch). […] The test compound, β-nicotinamide adenine dinucleotide phosphate (“NADPH”, AppliChem Inc.) and liver microsome solutions are combined for incubation in three steps:
(§3) 1) 450 μl of liver microsome suspension, protein concentration of 1.1 mg/ml in 100 mM sodium (+)/phosphate (“NaPi”, pH 7.4, Sigma Aldritch) buffer, 5 mM magnesium chloride (“MgCl2, Sigma Aldritch) buffer, is pre-warmed at 37° C.;
(§4) 3) The reaction is initiated by the addition of 50 μl of pre-warmed 10 mM NADPH solution in 100 mM NaPi, pH 7.4.
(§5) Reaction components are mixed well and then 65 μl are immediately transferred into 130 μl of quench/stop solution (zero-time point, T0). […] ACN containing Internal Standard (100 ng/ml), is used as the quench solution to terminate metabolic reactions. The quenched mixtures are centrifuged at 1500 rpm (˜500×g) in an Allegra X-12 centrifuge, SX4750 rotor (Beckman Coulter Inc., Fullerton, Calif.) for fifteen minutes to pellet denatured microsomes. A volume of 90 μl of supernatant extract, containing the mixture of parent compound and its metabolites, is then transferred to a separate 96-well plate for LC/MS-MS analysis to determine the percent of parent compound that is remaining in the mixture. Peak integration is performed on all samples using the Hepatic Clearance Calculator of QuickCalc by Gubbs, Inc. The percent remaining calculation is performed by comparing the LC-MS/MS peak areas from the samples at each time point to those from the T0 samples for each compound.

[4] = in vitro; details: human, microsomes, pH 7.4
Protocol: as §1, §2, §3, §4, §5

[5] = Flp-In-T-Rex-HEK293 cells expressing chimeric human/mouse GPR119, cAMP accumulation, read-out: GPR119 EC50

EC50 [1, 5] [nM] | SMILES | EC50 [1] [nM] | Minimally efficacious Dose [2] [mg/kg] | Glucose Lowering [2] [%] | half-life at 0.5 µM [3] [h] | half-life at 0.5 µM [4] [h] | reduction in glucose ([2]; at the stated dose (0.1 mg/kg Example 1; 0.3 mg/kg Example 224 of WO 2009/012275 A1)) [%]
– | CS(=O)(=O)c1ccc(-n2cc(Cl)c(OC3CCN(c4ncc(Cl)cn4)CC3)cc2=O)cc1F [Example 6, 5-Chloro-4-(1-(5-chloropyrimidin-2-yl)piperidin-4-yloxy)-1-(3-fluoro-4-(methylsulfonyl)phenyl)pyridin-2(1H)-one] | 4 | 0.1 | −36 | 0.65 | – | –
2 | CCS(=O)(=O)c1ccc(-n2cc(Cl)c(OC3CCN(c4ncc(Cl)cn4)CC3)cc2=O)cc1 [Example 10, 5-Chloro-4-(1-(5-chloropyrimidin-2-yl)piperidin-4-yloxy)-1-(4-(ethylsulfonyl)phenyl)pyridin-2(1H)-one] | – | – | – | – | 0.583 | –
– | CS(=O)(=O)c1ccc(-n2cc(Cl)c(OC3CCN(c4ncc(C(F)(F)F)cn4)CC3)cc2=O)cc1 [Example 1, 5-Chloro-1-(4-(methylsulfonyl)phenyl)-4-(1-(5-(trifluoromethyl)pyrimidin-2-yl)piperidin-4-yloxy)pyridin-2(1H)-one] | 8 | 0.1 | −24 | – | 3 | 24
– | CS(=O)(=O)c1ccc(-n2cc(Cl)c(OC3CCN(c4ncc(Cl)cn4)CC3)cc2=O)c(F)c1 [Example 5, 5-Chloro-4-(1-(5-chloropyrimidin-2-yl)piperidin-4-yloxy)-1-(2-fluoro-4-(methylsulfonyl)phenyl)pyridin-2(1H)-one] | 3 | 0.06 | −29 | – | 1.75 | –
– | CS(=O)(=O)c1ccc(-n2cc(Cl)c(OC3CCN(c4ncc(C(F)(F)F)cn4)CC3)cc2=O)c(F)c1 [Example 2, 5-Chloro-1-(2-fluoro-4-(methylsulfonyl)phenyl)-4-(1-(5-(trifluoromethyl)pyrimidin-2-yl)piperidin-4-yloxy)pyridin-2 (1H)-one] | 12 | 0.1 | −29 | – | 2.45 | –
– | CS(=O)(=O)c1ccc(-n2cc(Cl)c(OC3CCN(c4ncc(Cl)cn4)CC3)cc2=O)cc1 [Example 4, 5-Chloro-4-(1-(5-chloropyrimidin-2-yl)piperidin-4-yloxy)-1-(4-(methylsulfonyl)phenyl)pyridin-2(1H)-one] | 5 | 0.03 | −24 | 0.95 | – | –
8 | CCS(=O)(=O)c1ccc(-n2cc(Cl)c(OC3CCN(c4ncc(C(F)(F)F)cn4)CC3)cc2=O)c(F)c1 [Example 8, 5-Chloro-1-(4-(ethylsulfonyl)-2-fluorophenyl)-4-(1-(5-(trifluoromethyl)pyrimidin-2-yl)piperidin-4-yloxy)pyridin-2(1H)-one] | – | 0.03 | −26 | – | 2 | –
– | CS(=O)(=O)c1ccc(-n2cc(Cl)c(OC3CCN(c4ncc(C(F)(F)F)cn4)CC3)cc2=O)cc1F [Example 3, 5-Chloro-1-(3-fluoro-4-(methylsulfonyl)phenyl)-4-(1-(5-(trifluoromethyl)pyrimidin-2-yl)piperidin-4-yloxy)pyridin-2(1H)-one] | 7 | 0.1 | −28 | – | 1.8 | –
6 | CCS(=O)(=O)c1ccc(-n2cc(Cl)c(OC3CCN(c4ncc(Cl)cn4)CC3)cc2=O)c(F)c1 [Example 11, 5-Chloro-4-(1-(5-chloropyrimidin-2-yl)piperidin-4-yloxy)-1-(4-(ethylsulfonyl)-2-fluorophenyl)pyridin-2(1H)-one] | – | – | – | – | 0.85 | –
13 | CCS(=O)(=O)c1ccc(-n2cc(Cl)c(OC3CCN(c4ncc(C(F)(F)F)cn4)CC3)cc2=O)cc1F [Example 9, 5-Chloro-1-(4-(ethylsulfonyl)-3-fluorophenyl)-4-(1-(5-(trifluoromethyl)pyrimidin-2-yl)piperidin-4-yloxy)pyridin-2(1H)-one] | – | – | – | – | 1.47 | –
